# Measured values: patent US9556205B2, “Fungicide N-[(trisubstitutedsilyl)methyl]-carboxamide derivatives” (BAYER INTELLECTUAL PROPERTY GMBH, priority 2010, dated 2017)
# What was measured:
# [1] = log P by HPLC on reversed-phase column (C18), EEC Directive 79/831 Annex V.A8; format: physicochemical; conditions: 40° C., 0.1% aqueous formic acid and acetonitrile, linear gradient 10% to 90% acetonitrile
# Description: In table 1, the log P values were determined in accordance with EEC Directive 79/831 Annex V.A8 by HPLC (High Performance Liquid Chromatography) on a reversed-phase column (C18), using the method described below:
# Temperature: 40° C.; Mobile phases: 0.1% aqueous formic acid and acetonitrile; linear gradient from 10% acetonitrile to 90% acetonitrile.
# Calibration was carried out using unbranched alkan-2-ones (comprising 3 to 16 carbon atoms) with known log P values (determination of the log P values by the retention times using linear interpolation between two successive alkanones). lambda-max-values were determined using UV-spectra from 200 nm to 400 nm and the peak values of the chromatographic signals.
# [2] = test system: Pyrenophora teres; test: In vivo preventive test on Pyrenophora teres (barley), Example F; conditions: 500 ppm of active ingredient, evaluated 7-9 days after inoculation
# Description: (§1) Solvent: 49 parts by weight of N,N-dimethylformamide Emulsifier: 1 part by weight of alkylaryl polyglycol ether To produce a suitable preparation of active compound, 1 part by weight of active compound is mixed with the stated amounts of solvent and emulsifier, and the concentrate is diluted with water to the desired concentration. To test for preventive activity, young plants are sprayed with the preparation of active compound at the stated rate of application. One day after this treatment, the plants are inoculated with an aqueous spore suspension of Pyrenophora teres. […] Then the plants are placed in a greenhouse at a temperature of approximately 20° C. and a relative atmospheric humidity of approximately 80%.
# [3] = test system: Alternaria solani; test: In vivo preventive test on Alternaria solani (tomato); conditions: 500 ppm of active ingredient, evaluated 7 days after inoculation
# Description: as §1, with “Alkylarylpolyglycolether” for “alkylaryl polyglycol ether”, “Alternaria solani.” for “Pyrenophora teres.”, “an incubation cabinet” for “a greenhouse”, “at” for “at a temperature of”, “96%.” for “approximately 80%.”
# [4] = test system: Aflatoxins production by Aspergillus parasiticus; format: cell-based
# [5] = test system: Aspergillus parasiticus; format: cell-based; conditions: 7 days at 20° C., OD620nm
Molecule,logP [1],chromatographic logP [1],Efficacy [2],Efficacy [3],% Inhibition of Aflatoxin at 50 μM [4],% Inhibition of fungal growth at 50 μM [5]
Cc1cc(C(=O)NC[Si](C)(C)c2cccc(Cl)c2)c(C)o1 [Example 23],3.92,–,–,–,–,–
"Cc1nn(C)c(F)c1C(=O)N(C[Si](C)(C)c1ccccc1)C1CC1 [Example 8, N-cyclopropyl-N-{[dimethyl(phenyl)silyl]methyl}-5-fluoro-1,3-dimethyl-1H-pyrazole-4-carboxamide]",–,3.19,–,–,–,–
Cn1cc(C(=O)N(C[Si](C)(C)Cc2ccccc2Cl)C2CC2)c(C(F)F)c1 [Example 59],4.56,–,70%,–,–,–
Cn1nc(C(F)F)c(C(=O)N(C[Si](C)(C)Cc2ccccc2)C2CC2)c1Cl [Example 54],4.20,–,100%,95%,–,–
Cc1cc(C(=O)NC[Si](C)(C)c2cc(Cl)cc(Cl)c2)c(C)o1 [Example 44],4.54,–,–,–,–,–
Cn1nc(C(F)F)c(C(=O)NC[Si](C)(C)c2cc(Cl)cc(Cl)c2)c1F [Example 47],4.08,–,95%,100%,100%,100%
Cn1nc(C(F)F)c(C(=O)N(C[Si](C)(C)Cc2ccccc2Cl)C2CC2)c1Cl [Example 60],4.56,–,95%,95%,100%,84%
Cn1nc(C(F)F)c(C(=O)NC[Si](C)(C)c2cc(Cl)cc(Cl)c2)c1Cl [Example 46],4.27,–,100%,95%,99%,84%
Cn1nc(C(F)F)c(C(=O)NC[Si](C)(C)c2ccccc2Cl)c1Cl [Example 14],3.69,–,–,–,–,–
Cn1cc(C(=O)N(C[Si](C)(C)Cc2ccc(Cl)cc2Cl)C2CC2)c(C(F)F)c1 [Example 68],5.19,–,–,70%,–,–
Cc1cc(C(=O)N(C[Si](C)(C)Cc2ccccc2)C2CC2)c(C)o1 [Example 56],4.67,–,–,–,–,–
Cn1cc(C(=O)NC[Si](C)(C)c2cccc(Cl)c2)c(C(F)F)c1 [Example 24],3.58,–,–,–,–,–
Cc1cc(C(=O)N(C[Si](C)(C)c2cc(Cl)cc(Cl)c2)C2CC2)c(C)o1 [Example 50],5.51,–,95%,100%,–,–
Cc1cc(C(=O)NC[Si](C)(C)c2ccccc2)c(C)o1 [Example 3],3.48,–,–,–,–,–
Cn1nc(C(F)F)c(C(=O)NC[Si](C)(C)c2cccc(Cl)c2)c1F [Example 26],3.55,–,100%,100%,100%,100%
Cn1nc(C(F)F)c(C(=O)NC[Si](C)(C)c2ccccc2)c1Cl [Example 2],3.31,–,100%,95%,87%,71%
Cc1cc(C(=O)N(C[Si](C)(C)c2cccc(Cl)c2)C2CC2)c(C)o1 [Example 29],4.78,–,95%,94%,–,–
Cn1nc(C(F)F)c(C(=O)N(C[Si](C)(C)Cc2cccc(Cl)c2)C2CC2)c1F [Example 66],4.44,–,100%,100%,100%,100%
Cn1nc(C(F)F)c(C(=O)N(C[Si](C)(C)c2ccsc2)C2CC2)c1Cl [Example 75],3.71,–,100%,94%,100%,100%
Cn1nc(C(F)F)c(C(=O)N(C[Si](C)(C)Cc2cc(Cl)cc(Cl)c2)C2CC2)c1F [Example 72],4.98,–,–,89%,100%,100%
Cn1cc(C(=O)N(C[Si](C)(C)Cc2cccc(Cl)c2)C2CC2)c(C(F)F)c1 [Example 64],4.62,–,–,–,–,–
Cn1nc(C(F)F)c(C(=O)NC[Si](C)(C)c2ccc(Cl)cc2Cl)c1Cl [Example 35],4.25,–,–,90%,–,–
Cc1cc(C(=O)N(C[Si](C)(C)c2ccccc2Cl)C2CC2)c(C)o1 [Example 22],4.74,–,80%,95%,–,–
Cc1cc(C(=O)N(C[Si](C)(C)Cc2ccccc2Cl)C2CC2)c(C)o1 [Example 58],5.08,–,–,–,–,–

Molecule,logP [1],chromatographic logP [1],Efficacy [2],Efficacy [3],% Inhibition of Aflatoxin at 50 μM [4],% Inhibition of fungal growth at 50 μM [5]
Cc1cc(C(=O)NC[Si](C)(C)c2ccc(Cl)cc2Cl)c(C)o1 [Example 33],4.46,–,–,–,–,–
Cn1nc(C(F)F)c(C(=O)N(C[Si](C)(C)Cc2ccccc2Cl)C2CC2)c1F [Example 61],4.41,–,100%,100%,100%,100%
Cn1nc(C(F)F)c(C(=O)NC[Si](C)(C)c2ccccc2)c1F [Example 1],3.13,–,100%,100%,100%,93%
Cn1nc(C(F)F)c(C(=O)N(C[Si](C)(C)c2ccc3ccccc3c2)C2CC2)c1Cl [Example 77],4.51,–,–,–,–,–
Cn1nc(C(F)F)c(C(=O)N(C[Si](C)(C)c2ccc3ccccc3c2)C2CC2)c1F [Example 74],4.36,–,100%,100%,100%,100%
Cn1cc(C(=O)NC[Si](C)(C)c2cc(Cl)cc(Cl)c2)c(C(F)F)c1 [Example 45],4.11,–,–,–,–,–
Cn1nc(C(F)F)c(C(=S)NC[Si](C)(C)c2ccccc2Cl)c1F [Example 16],4.11,–,–,70%,–,–
C[Si](C)(CN(C(=O)c1ccsc1I)C1CC1)c1ccc2ccccc2c1 [Example 78],5.17,–,–,–,–,–
Cn1nc(C(F)F)c(C(=O)NC[Si](C)(C)c2ccc(Cl)cc2Cl)c1F [Example 36],4.06,–,100%,100%,100%,84%
Cn1cc(C(=O)NC[Si](C)(C)c2ccc(Cl)cc2Cl)c(C(F)F)c1 [Example 34],4.06,–,–,–,–,–
Cc1nc(C(F)F)c(C(=O)N(C[Si](C)(C)c2ccc(Cl)cc2Cl)C2CC2)s1 [Example 43],5.00,–,100%,100%,–,–
N-cyclohexyl-N-{[dimethyl(phenyl)silyl]methyl}-2-furamide [Example 5],3.73,–,–,–,–,–
Cc1cc(C(=O)N(C[Si](C)(C)Cc2ccc(Cl)cc2Cl)C2CC2)c(C)o1 [Example 73],5.78,–,–,–,–,–
Cc1cc(C(=O)N(C[Si](C)(C)Cc2cccc(Cl)c2)C2CC2)c(C)o1 [Example 63],5.11,–,–,70%,–,–
Cn1nc(C(F)F)c(C(=S)N(C[Si](C)(C)Cc2ccc(Cl)cc2Cl)C2CC2)c1F [Example 71],5.57,–,100%,95%,–,–
Cn1nc(C(F)F)c(C(=O)N(C[Si](C)(C)Cc2cccc(Cl)c2)C2CC2)c1Cl [Example 65],4.59,–,100%,95%,82%,72%
Cn1nc(C(F)F)c(C(=O)N(C[Si](C)(C)Cc2cc(Cl)cc(Cl)c2)C2CC2)c1Cl [Example 67],5.14,–,–,78%,100%,86%
Cn1nc(C(F)F)c(C(=S)N(C[Si](C)(C)Cc2ccccc2)C2CC2)c1F [Example 57],4.67,–,–,95%,–,–
Cn1nc(C(F)F)c(C(=O)N(C[Si](C)(C)Cc2ccc(Cl)cc2Cl)C2CC2)c1Cl [Example 69],5.19,–,100%,100%,100%,85%
Cn1nc(C(F)F)c(C(=S)NC[Si](C)(C)c2ccc(Cl)cc2Cl)c1F [Example 37],4.74,–,–,–,–,–
Cc1cc(C(=O)NC[Si](C)(C)c2ccccc2Cl)c(C)o1 [Example 13],3.85,–,–,–,–,–
Cc1nc(C(F)F)c(C(=O)N(C[Si](C)(C)c2cc(Cl)cc(Cl)c2)C2CC2)s1 [Example 53],4.92,–,95%,80%,–,–
Cn1nc(C(F)F)c(C(=S)N(C[Si](C)(C)Cc2ccccc2Cl)C2CC2)c1F [Example 62],5.00,–,100%,80%,–,–
